According to patent publication US9725445B2, “Cycloalkyl nitrile pyrazolo pyridones as Janus kinase inhibitors” (Merck Sharp & Dohme Corp., priority 2013, dated 2017):

target: JAK1 (Homo sapiens (Human), UniProt P23458); assay: Jak biochemical HTRF assay, JAK1; details: HTRF biochemical assay, recombinant GST-tagged catalytic domain; read-out: JAK1 IC50
Sequence (P23458 875-1153): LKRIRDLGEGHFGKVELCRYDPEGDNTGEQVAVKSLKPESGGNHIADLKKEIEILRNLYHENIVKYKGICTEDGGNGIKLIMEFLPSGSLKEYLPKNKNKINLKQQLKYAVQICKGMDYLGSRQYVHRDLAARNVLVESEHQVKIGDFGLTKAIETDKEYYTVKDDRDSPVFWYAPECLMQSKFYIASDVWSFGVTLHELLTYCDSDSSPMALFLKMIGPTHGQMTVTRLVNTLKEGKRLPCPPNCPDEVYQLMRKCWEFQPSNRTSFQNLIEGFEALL

Row | SMILES | IC50 [pM]
1 | CN(C)S(=O)(=O)c1ccc(Nc2nn([C@H]3CCCC[C@@H]3C#N)c3cc[nH]c(=O)c23)cc1CN [Example 8-1, 2-(Aminomethyl)-4-((1-((1S,2S)-2-cyanocyclohexyl)-4-oxo-4,5-dihydro-1H-pyrazolo[4,3-c]pyridin-3-yl)amino)-N,N-dimethylbenzenesulfonamide] | 780
2 | CC(C)(C)OC(=O)C1CCC(N2Cc3cc(Nc4nn([C@H]5CCCC[C@@H]5C#N)c5cc[nH]c(=O)c45)ccc3C2=O)CC1 (single isomer, unassigned) [Example 3-134, (cis or trans)tert-butyl 4-(5-((1-((1S,2S)-2-cyanocyclohexyl)-4-oxo-4,5-dihydro-1H-pyrazolo[4,3-c]pyridin-3-yl)amino)-1-oxoisoindolin-2-yl)cyclohexanecarboxylate] | 160
3 | CC(C)(C)OC(=O)CCN1Cc2ccc(Nc3nn([C@H]4CCCC[C@@H]4C#N)c4cc[nH]c(=O)c34)cc2C1 [Example 3-163, tert-butyl 3-[5-({1-[(1S,2S)-2-cyanocyclohexyl]-4-oxo-4,5-dihydro-1H-pyrazolo[4,3-c]pyridin-3-yl}amino)-1,3-dihydro-2H-isoindol-2-yl]propanoate] | 490
4 | CC(C)(C)N1Cc2cc(Nc3nn([C@@H]4CCCCC[C@@H]4C#N)c4cc[nH]c(=O)c34)ccc2S1(=O)=O (single isomer, unassigned) [Example 3-179, (1S,2R or 1R,2S)-2-{3-[(2-tert-butyl-1,1-dioxido-2,3-dihydro-1,2-benzisothiazol-5-yl)amino]-4-oxo-4,5-dihydro-1H-pyrazolo[4,3-c]pyridin-1-yl}cycloheptanecarbonitrile] | 460
5 | CC(C)N1Cc2cc(Nc3nn([C@H]4CCCC[C@@H]4C#N)c4cc[nH]c(=O)c34)ccc2C1=O [Example 3-153, (1S,2S)-2-(3-{[2-(1-methylethyl)-1-oxo-2,3-dihydro-1H-isoindol-5-yl]amino}-4-oxo-4,5-dihydro-1H-pyrazolo[4,3-c]pyridin-1-yl)cyclohexanecarbonitrile] | 57

Next, values leading:

Row | IC50 [pM] | SMILES
6 | 250 | CC(C)C(c1ccc(Nc2nn([C@H]3CCCC[C@@H]3C#N)c3cc[nH]c(=O)c23)cc1)n1nccn1 (single isomer, unassigned) [Example 15-31, (1S,2S)-2-[3-({4-[(1R or 1S)-2-methyl-1-(2H-1,2,3-triazol-2-yl)propyl]phenyl}amino)-4-oxo-4,5-dihydro-1H-pyrazolo[4,3-c]pyridin-1-yl]cyclohexanecarbonitrile]
7 | 150 | CC(c1ccc(Nc2nn([C@H]3CCCC[C@@H]3C#N)c3cc[nH]c(=O)c23)cc1)n1ccnn1 (single isomer, unassigned) [Example 15-42, (1S,2S)-2-[4-oxo-3-({4-[(1S or 1R)-1-(1H-1,2,3-triazol-1-yl)ethyl]phenyl}amino)-4,5-dihydro-1H-pyrazolo[4,3-c]pyridin-1-yl]cyclohexanecarbonitrile]
8 | 390 | CC(c1ccc(Nc2nn([C@H]3CCCC[C@@H]3C#N)c3cc[nH]c(=O)c23)cc1)n1nccn1 (single isomer, unassigned) [Example 15-21, (1S,2S)-2-[4-oxo-3-({4-[(1S or 1R)-1-(2H-1,2,3-triazol-2-yl)ethyl]phenyl}amino)-4,5-dihydro-1H-pyrazolo[4,3-c]pyridin-1-yl]cyclohexanecarbonitrile]

target: JAK2 (Homo sapiens (Human), UniProt O60674); assay: Jak biochemical HTRF assay, JAK2; details: HTRF biochemical assay, recombinant GST-tagged catalytic domain; read-out: JAK2 IC50
Sequence (O60674 849-1124): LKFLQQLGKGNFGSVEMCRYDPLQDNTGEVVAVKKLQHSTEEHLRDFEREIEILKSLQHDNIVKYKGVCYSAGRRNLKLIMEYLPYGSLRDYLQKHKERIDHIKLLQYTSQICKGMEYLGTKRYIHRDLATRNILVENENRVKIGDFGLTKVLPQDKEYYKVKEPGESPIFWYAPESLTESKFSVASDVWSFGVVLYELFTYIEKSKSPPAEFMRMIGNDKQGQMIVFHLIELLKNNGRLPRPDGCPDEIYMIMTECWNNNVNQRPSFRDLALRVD
Protocol: Jak Biochemical HTRF Assay Protocol
The ability of compounds to inhibit the activity of JAK1, JAK2, JAK3, and Tyk2 was measured using a recombinant purified GST-tagged catalytic domain for each enzyme (Invitrogen JAK1 #M4290, JAK2 #M4290, JAK3 #M4290, Tyk2 #M4290) in an HTRF format biochemical assay. […] The basic assay protocol is as follows: First, 250 nL of diluted compounds in DMSO were dispensed into the wells of a dry 384-well Black plate (Greiner #781076) using a Labcyte Echo 555 acoustic dispenser. Subsequent reagent additions employed an Agilent Bravo. […] After equilibration, 2 μL of 10×ATP in 1× assay buffer was added to initiate the kinase reaction and the plates were shaken and then incubated at room temperature for 120 minutes. […] Plates were shaken and centrifuged and then incubated 60 minutes at room temperature and then read on a Perkin Elmer Envision (λex=337 nm, λem=665 and 615 nm, TRF delay time=20 μs). HTRF signal=10,000*665 nm reading/615 nm reading. After normalization to untreated controls, the percent inhibition of the HTRF signal at each compound concentration was calculated. The plot of percent inhibition versus the log of compound concentration was fit with a 4-parameter dose response equation to calculate IC50 values.
Final Reaction Conditions were:
Examples of the instant invention were evaluated in JAK1 and JAK2 in vitro binding assays.

Row | SMILES | IC50 [pM]
9 | CC(C)NC(c1ccc(Nc2nn([C@H]3CCC[C@@H]3C#N)c3cc[nH]c(=O)c23)cc1)C(F)(F)F (single isomer, unassigned) [Example 3-116, (1S,2S)-2-{4-oxo-3-[(4-{(1S or 1R)-2,2,2-trifluoro-1-[(1-methylethyl)amino]ethyl}phenyl)amino]-4,5-dihydro-1H-pyrazolo[4,3-c]pyridin-1-yl}cyclopentanecarbonitrile] | 200
10 | CC(O)(CCO)c1cc(Nc2nn([C@H]3CCCC[C@@H]3C#N)c3cc[nH]c(=O)c23)ccc1S(C)(=O)=O (stereo partly drawn) [Example 3-86, (1S,2S)-2-(3-{[3-(1,3-dihydroxy-1-methylpropyl)-4-(methylsulfonyl)phenyl]amino}-4-oxo-4,5-dihydro-1H-pyrazolo[4,3-c]pyridin-1-yl)cyclohexanecarbonitrile] | 7600
11 | CC(C)NC(c1ccc(Nc2nn([C@H]3CCC[C@@H]3C#N)c3cc[nH]c(=O)c23)cc1)C(F)(F)F (single isomer, unassigned) [Example 3-115, (1S,2S)-2-{4-oxo-3-[(4-{(1R or 1S)-2,2,2-trifluoro-1-[(1-methylethyl)amino]ethyl}phenyl)amino]-4,5-dihydro-1H-pyrazolo[4,3-c]pyridin-1-yl}cyclopentanecarbonitrile] | 330
12 | CC(C)S(=N)(=O)c1ccc(Nc2nn(C3CCC[C@@H]3C#N)c3cc[nH]c(=O)c23)cc1 (single isomer, unassigned) [Example 3-108, (1S,2S)-2-[3-({4-[(S or R)-S-(1-methylethyl)sulfonimidoyl]phenyl}amino)-4-oxo-4,5-dihydro-yl]cyclopentanecarbonitrile] | 500
13 | N#C[C@H]1CCCC[C@@H]1n1nc(Nc2ccc3c(c2)C(O)C2(CCCCC2)S3(=O)=O)c2c(=O)[nH]ccc21 (single isomer, unassigned) [Example 3-175, (1S,2S)-2-(3-{[(3R or 3S)-3-hydroxy-1,1-dioxido-3H-spiro[1-benzothiophene-2,1′-cyclohexan]-5-yl]amino}-4-oxo-4,5-dihydro-1H-pyrazolo[4,3-c]pyridin-1-yl)cyclohexanecarbonitrile] | 260
14 | CC(O)(c1ccc(Nc2nn([C@H]3CCC[C@@H]3C#N)c3cc[nH]c(=O)c23)cc1)C(F)(F)F (single isomer, unassigned) [Example 3-139, (1S,2S)-2-[4-oxo-3-({4-[(1R or 1S)-2,2,2-trifluoro-1-hydroxy-1-methylethyl]phenyl}amino)-4,5-dihydro-1H-pyrazolo[4,3-c]pyridin-1-yl]cyclopentanecarbonitrile] | 350
15 | N#C[C@H]1C[C@H](N2CCC2)CC[C@@H]1n1nc(Nc2ccc(Cl)cc2)c2c(=O)[nH]ccc21 [Example 5-17, (1S,2S,5R)-5-(azetidin-1-yl)-2-(3-((4-chlorophenyl)amino)-4-oxo-4,5-dihydro-1H-pyrazolo[4,3-c]pyridin-1-yl)cyclohexanecarbonitrile] | 33000
16 | N#C[C@H]1CCCC[C@@H]1n1nc(Nc2ccc3c(c2)C(O)C2(CCCCC2)S3(=O)=O)c2c(=O)[nH]ccc21 (single isomer, unassigned) [Example 3-174, (1S,2S)-2-(3-{[(3S or 3R)-3-hydroxy-1,1-dioxido-3H-spiro[1-benzothiophene-2,1′-cyclohexan]-5-yl]amino}-4-oxo-4,5-dihydro-1H-pyrazolo[4,3-c]pyridin-1-yl)cyclohexanecarbonitrile] | 490
17 | N#C[C@H]1C[C@@H](N2CCC2)CC[C@@H]1n1nc(Nc2ccc(Cl)cc2)c2c(=O)[nH]ccc21 [Example 5-18, (1S,2S,5S)-5-(azetidin-1-yl)-2-(3-((4-chlorophenyl)amino)-4-oxo-4,5-dihydro-1H-pyrazolo[4,3-c]pyridin-1-yl)cyclohexanecarbonitrile] | 13000

Other lines, results leading:

Row | IC50 [pM] | SMILES
18 | 17000 | CC(C)(C)S(=O)(=O)c1ccc(Nc2nn([C@@H]3CC(F)(F)C[C@H]3C#N)c3cc[nH]c(=O)c23)cc1 (single isomer, unassigned) [Example 22-3, (1R,2R or 1S,2S)-2-(3-{[4-(tert-butylsulfonyl)phenyl]amino}-4-oxo-4,5-dihydro-1H-pyrazolo[4,3-c]pyridin-1-yl)-4,4-difluorocyclopentanecarbonitrile]
19 | 350 | CC(C)(C)S(=O)(=O)c1ccc(Nc2nn([C@H]3CC(F)(F)C[C@@H]3C#N)c3cc[nH]c(=O)c23)cc1 (single isomer, unassigned) [Example 22-4, (1S,2S or 1R,2R)-2-(3-{[4-(tert-butylsulfonyl)phenyl]amino}-4-oxo-4,5-dihydro-1H-pyrazolo[4,3-c]pyridin-1-yl)-4,4-difluorocyclopentanecarbonitrile]
20 | 3500 | CC(C)(C)S(=O)(=O)c1ccc(Nc2nn([C@H]3CC(F)(F)C[C@H]3C#N)c3cc[nH]c(=O)c23)cc1 (single isomer, unassigned) [Example 22-1, (1R,2S or 1S,2R)-2-(3-((4-(tert-Butylsulfonyl)phenyl)amino)-4-oxo-4,5-dihydro-1H-pyrazolo[4,3-c]pyridin-1-yl)-4,4-difluorocyclopentanecarbonitrile]
21 | 250 | CC(C)C(c1ccc(Nc2nn([C@H]3CCCC[C@@H]3C#N)c3cc[nH]c(=O)c23)cc1)n1ccnn1 (single isomer, unassigned) [Example 15-23, (1S,2S)-2-[3-({4-[(1R or 1S)-2-methyl-1-(1H-1,2,3-triazol-1-yl)propyl]phenyl}amino)-4-oxo-4,5-dihydro-1H-pyrazolo[4,3-c]pyridin-1-yl]cyclohexanecarbonitrile]
22 | 610 | N#C[C@H]1CCCC[C@@H]1n1nc(Nc2ccc(C(O)C(F)F)cc2)c2c(=O)[nH]ccc21 (mixture of isomers) [Example 10-1, Racemic-(1S,2S)-2-(3-((4-(2,2-difluoro-1-hydroxyethyl)phenyl)amino)-4-oxo-4,5-dihydro-1H-pyrazolo[4,3-c]pyridin-1-yl)cyclohexanecarbonitrile]
